In ChEMBL document CHEMBL1201862, “PubChem BioAssay data set” (2004):
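Growth conditions: 96-well plates. Treatment: test compound, 48 hours, 5 concentrations. Analysis: linear interpolation between bracketing concentrations; unreached endpoints set to highest concentration. At the GI50, growth is halved.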 The source made the active and inactive calls. Cut-off read from the data, not from the text of the source: active = GI50 up to about 1.1 µM and inactive = higher.

Columns and labels:
Assay in all cases: NCI anticancer screen, dose series, 48 h
CCRF-CEM = system: CCRF-CEM
SK-MEL-2 = system: SK-MEL-2
EKVX = system: EKVX
HCT-15 = system: HCT-15
LOX IMVI = system: LOX IMVI
RPMI-8226 = system: RPMI-8226
SR = system: SR
RXF 393 = system: RXF 393
SF-539 = system: SF-539
Malme-3M = system: Malme-3M
HOP-92 = system: HOP-92
SNB-19 = system: SNB-19
M19-MEL = system: M19-MEL
OVCAR-4 = system: OVCAR-4
HOP-62 = system: HOP-62
ACHN = system: ACHN
MDA-N = system: MDA-N
BT-549 = system: BT-549
MCF7 = system: MCF7
Hs-578T = system: Hs-578T

O=S(=O)(c1ccccc1)N1N=C2c3ccccc3CCC[C@H]2C1c1ccccc1 (some centres not stated)
GI50 (CCRF-CEM): > 100 µM (inactive) | GI50 (SK-MEL-2): > 100 µM (inactive) | GI50 (EKVX): > 84.3 µM (inactive) | GI50 (HCT-15): > 100 µM | GI50 (LOX IMVI): > 87.9 µM (inactive) | GI50 (RPMI-8226): > 100 µM (inactive) | GI50 (SR): 95.7 µM (inactive) | GI50 (RXF 393): > 100 µM (inactive) | GI50 (SF-539): > 100 µM (inactive) | GI50 (Malme-3M): > 100 µM (inactive) | GI50 (HOP-92): > 100 µM (inactive) | GI50 (SNB-19): > 100 µM (inactive) | GI50 (M19-MEL): > 100 µM (inactive) | GI50 (OVCAR-4): > 100 µM (inactive) | GI50 (HOP-62): > 100 µM (inactive) | GI50 (ACHN): > 100 µM (inactive)

CS(=O)(=O)OCCN(CCOS(C)(=O)=O)c1ccc(/C=N/c2ccc3oc(=O)ccc3c2)cc1
GI50 (CCRF-CEM): 0.871 µM (active) | GI50 (SK-MEL-2): 15.8 µM (inactive) | GI50 (EKVX): 8.2 µM (inactive) | GI50 (HCT-15): 7.21 µM | GI50 (LOX IMVI): 7.23 µM (inactive) | GI50 (RPMI-8226): 6.53 µM (inactive) | GI50 (SR): 0.395 µM (active) | GI50 (MDA-N): 10.9 µM (inactive) | GI50 (BT-549): 10.5 µM (inactive) | GI50 (RXF 393): 0.553 µM (active) | GI50 (SF-539): 4.43 µM (inactive) | GI50 (Malme-3M): 8.73 µM (inactive) | GI50 (HOP-92): 12.3 µM (inactive) | GI50 (SNB-19): 8.97 µM (inactive) | GI50 (M19-MEL): 13.2 µM (inactive) | GI50 (OVCAR-4): 11.7 µM (inactive) | GI50 (HOP-62): 1.89 µM (inactive) | GI50 (MCF7): 3.59 µM (inactive) | GI50 (Hs-578T): 28.1 µM (inactive) | GI50 (ACHN): 0.492 µM (active)

ClC(Cl)=C1C(=C(Cl)Cl)C(Cl)(Cl)C1(Cl)Cl
GI50 (CCRF-CEM): 0.101 µM (active) | GI50 (SK-MEL-2): 1.29 µM (inactive) | GI50 (EKVX): 7.52 µM (inactive) | GI50 (HCT-15): 1.14 µM | GI50 (LOX IMVI): 0.212 µM (active) | GI50 (RPMI-8226): 0.558 µM (active) | GI50 (SR): 0.214 µM (active) | GI50 (MDA-N): 1.37 µM (inactive) | GI50 (BT-549): 2.77 µM (inactive) | GI50 (RXF 393): 1.45 µM (inactive) | GI50 (SF-539): 2.34 µM (inactive) | GI50 (Malme-3M): 2.42 µM (inactive) | GI50 (HOP-92): 1.24 µM (inactive) | GI50 (SNB-19): 12.5 µM (inactive) | GI50 (M19-MEL): 2.72 µM (inactive) | GI50 (OVCAR-4): 5.07 µM (inactive) | GI50 (HOP-62): 8.18 µM (inactive) | GI50 (MCF7): 4.47 µM (inactive) | GI50 (Hs-578T): 2.36 µM (inactive) | GI50 (ACHN): 2.48 µM (inactive)

CCOC(=O)C[C@@]12CCCN[C@]1(C)CCc1ccccc12
GI50 (CCRF-CEM): > 100 µM (inactive) | GI50 (SK-MEL-2): > 100 µM (inactive) | GI50 (EKVX): > 100 µM (inactive) | GI50 (HCT-15): > 100 µM | GI50 (LOX IMVI): > 100 µM (inactive) | GI50 (RPMI-8226): > 100 µM (inactive) | GI50 (SR): > 100 µM (inactive) | GI50 (RXF 393): > 100 µM (inactive) | GI50 (SF-539): > 100 µM (inactive) | GI50 (Malme-3M): > 100 µM (inactive) | GI50 (HOP-92): 97.1 µM (inactive) | GI50 (SNB-19): > 100 µM (inactive) | GI50 (M19-MEL): > 100 µM (inactive) | GI50 (OVCAR-4): > 100 µM (inactive) | GI50 (HOP-62): > 100 µM (inactive) | GI50 (ACHN): > 100 µM (inactive)

CSc1nc(NC2OCC(OC(C)=O)C(OC(C)=O)C2OC(C)=O)c(/N=C\C=N\c2c(NC3OCC(OC(C)=O)C(OC(C)=O)C3OC(C)=O)nc(SC)[nH]c2=O)c(=O)[nH]1 (configuration not stated)
GI50 (CCRF-CEM): > 54.8 µM (inactive) | GI50 (SK-MEL-2): > 100 µM (inactive) | GI50 (EKVX): > 86.9 µM (inactive) | GI50 (HCT-15): > 100 µM | GI50 (LOX IMVI): > 100 µM (inactive) | GI50 (RPMI-8226): > 100 µM (inactive) | GI50 (SR): > 100 µM (inactive) | GI50 (MDA-N): > 100 µM (inactive) | GI50 (BT-549): 55.2 µM (inactive) | GI50 (RXF 393): 22.8 µM (inactive) | GI50 (SF-539): 43.7 µM (inactive) | GI50 (Malme-3M): > 100 µM (inactive) | GI50 (HOP-92): 35.5 µM (inactive) | GI50 (SNB-19): 46.3 µM (inactive) | GI50 (M19-MEL): > 100 µM (inactive) | GI50 (OVCAR-4): > 100 µM (inactive) | GI50 (HOP-62): 30.5 µM (inactive) | GI50 (MCF7): 46.5 µM (inactive) | GI50 (Hs-578T): 42 µM (inactive) | GI50 (ACHN): > 67.8 µM (inactive)

COc1ccc(/C=C(\Cl)c2ccc(OC)c(OC)c2)cc1OC
GI50 (CCRF-CEM): > 100 µM (inactive) | GI50 (SK-MEL-2): > 100 µM (inactive) | GI50 (EKVX): > 100 µM (inactive) | GI50 (HCT-15): > 100 µM | GI50 (LOX IMVI): > 100 µM (inactive) | GI50 (RPMI-8226): > 100 µM (inactive) | GI50 (SR): > 100 µM (inactive) | GI50 (MDA-N): > 100 µM (inactive) | GI50 (BT-549): > 100 µM (inactive) | GI50 (RXF 393): > 90.4 µM (inactive) | GI50 (SF-539): > 100 µM (inactive) | GI50 (Malme-3M): > 100 µM (inactive) | GI50 (HOP-92): 56 µM (inactive) | GI50 (SNB-19): > 100 µM (inactive) | GI50 (M19-MEL): > 100 µM (inactive) | GI50 (OVCAR-4): > 67.6 µM (inactive) | GI50 (HOP-62): > 82.8 µM (inactive) | GI50 (MCF7): > 100 µM (inactive) | GI50 (Hs-578T): > 100 µM (inactive) | GI50 (ACHN): > 100 µM (inactive)
